Here are results for twelve compounds from ChEMBL document CHEMBL1201862, “PubChem BioAssay data set” (2004).

Assay in all cases: inhibition of tumour cell growth, NCI panel, 48 h
Assay [1] deals with OVCAR-3.
In assay [2] the test system is SF-295.
In assay [3] the test system is 786-0.
Assay [4] concerns TK-10.
In assay [5] the test system is HCT-15.
In assay [6] the test system is SW-620.
Assay [7] deals with T47D.
Assay [8] relates to RPMI-8226.
Assay [9] relates to K562.
The subject of assay [10] is Malme-3M.
In assay [11] the test system is SN12C.
Assay [12] relates to MDA-N.
Assay [13] concerns HL-60.
Assay [14] relates to OVCAR-8.
In assay [15] the test system is NCI-H522.
Assay [16] concerns HCT-116.
For assay [17], the system named is NCI/ADR-RES.
The test system of assay [18] is RXF 393.
Assay [19] has as its system SR.
Assay [20] relates to MDA-MB-435.

Each structure is given as a SMILES string.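 Compound exposure: 48 hours, 5 concentrations, 96-well plates. GI50 marks 50% less growth.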 Calls of active or inactive are those of the source. No stated cut-off is given here; in the data, active = GI50 up to about 1.1 µM and inactive = higher.

Turning to `Cc1cc(S(=O)(=O)Nc2nc(N)nc(N(C)C)n2)c(S)cc1Cl`, the GI50 was > 10 µM (inactive) in [1]; > 10 µM (inactive) in assay [2]; > 10 µM (inactive) in assay [3]; > 10 µM (inactive) in assay [4]; > 10 µM in assay [5]; > 10 µM (inactive) in assay [6]. For the same compound, the GI50 in assay [7], in assay [8], in assay [9], in [10], in assay [11] and in assay [12] was > 10 µM (inactive) in each case. In addition, the GI50 in assay [13], in [14], in assay [15], in assay [16], in assay [17] and in assay [18] was > 10 µM (inactive) in each case. Moreover, in assay [19], the GI50 was > 10 µM (inactive).

For the compound `C[C@@]12c3c4ccc(C=O)c3Oc3ccc(C=O)c(c31)Oc1c(C=O)ccc(c12)O4`, the GI50 is > 100 µM (inactive) in assay [1]; > 100 µM (inactive) in assay [2]; > 100 µM (inactive) in assay [3]; > 100 µM (inactive) in assay [4]; > 100 µM in [5]; > 100 µM (inactive) in [6]. For the same compound, the GI50 in assay [7], in [8], in [9], in assay [10], in [11] and in [12] was > 100 µM (inactive) throughout. The GI50 is > 100 µM (inactive) in assay [14]; > 100 µM (inactive) in assay [20]; > 100 µM (inactive) in assay [16]; > 100 µM (inactive) in assay [17]; 2.96 µM (inactive) in assay [19].

On to `C[C@@]1(OC(=O)c2cc([N+](=O)[O-])cc([N+](=O)[O-])c2)C[C@@H]2CCCC[C@@H]21`, for which the GI50 is 66.4 µM (inactive) in assay [2]; > 100 µM (inactive) in assay [3]; > 100 µM (inactive) in assay [4]; > 100 µM in assay [5]; > 100 µM (inactive) in assay [6]; > 100 µM (inactive) in assay [7]. Moreover, the GI50 in [8] was 31.6 µM (inactive); in assay [9], > 100 µM (inactive); in assay [10], 58.3 µM (inactive); in assay [11], > 100 µM (inactive); in assay [12], > 100 µM (inactive); in [13], > 100 µM (inactive). Further, the GI50 in assay [14], in assay [15], in assay [16], in assay [17] and in [19] was > 100 µM (inactive) in each case.

With `CC1(C)CC(=O)C2=C(C1)NC1=C(C(=O)CC(C)(C)C1)C2c1ccc([N+](=O)[O-])cc1`, the GI50 in [1] was > 100 µM (inactive); in assay [2] it was > 100 µM (inactive); in assay [3], > 100 µM (inactive); in assay [4], > 100 µM (inactive); in [5] it was > 100 µM; in [6], > 100 µM (inactive). Moreover, the GI50 in [7], in assay [8], in [9], in assay [11], in [12] and in assay [13] was > 100 µM (inactive) in each case. The GI50 in [14], in assay [20], in [15], in assay [16] and in assay [18] was > 100 µM (inactive) each time.

Consider `Cc1sc(N/N=C2\C(=O)Nc3ccccc32)nc1-c1ccccc1`, for which the GI50 was 12.6 µM (inactive) in assay [1]; 11 µM (inactive) in [2]; 17.4 µM (inactive) in assay [3]; 23.8 µM (inactive) in [4]; 9.38 µM in assay [5]; 23.6 µM (inactive) in assay [6]. Also, the GI50 is 13.6 µM (inactive) in assay [7]; 12.1 µM (inactive) in assay [11]; 19.4 µM (inactive) in assay [12]; 4.23 µM (inactive) in assay [13]; 17.5 µM (inactive) in [14]; 19.6 µM (inactive) in assay [20]. In addition, the figures for the GI50 in [16], in assay [17] and in assay [18] were 12.4 µM (inactive), 17 µM (inactive) and 15.8 µM (inactive), respectively.

For `CCOC(=O)C(=O)/C(=C/n1c(=S)[nH]c2ccc([N+](=O)[O-])cc21)C(=O)OCC`, the GI50 in assay [1], in assay [2], in [3], in [4], in assay [6] and in assay [7] was > 100 µM (inactive) each time. The GI50 in [8], in [9], in assay [11], in [12], in assay [13] and in [14] was > 100 µM (inactive) in each case. The GI50 in assay [20], in assay [16], in [17], in [18] and in assay [19] was > 100 µM (inactive) throughout.

Consider `COc1cc(Cc2nccc3cc(OC)c(OC)cc23)c(/N=N/N(C)C)cc1OC`, for which the GI50 in assay [1] was 15.5 µM (inactive); in assay [2], 19.9 µM (inactive); in assay [3] it was 4 µM (inactive); in [4] it was 20.4 µM (inactive); in [5], 5 µM; in assay [6], 7.94 µM (inactive). Further, the GI50 in [7] was 5.36 µM (inactive); in assay [8], 4.73 µM (inactive); in assay [9], 4.28 µM (inactive); in assay [10], 22.3 µM (inactive); in [11] it was 14.3 µM (inactive); in assay [12] it was 19 µM (inactive). Moreover, the GI50 in assay [14] was 15.7 µM (inactive); in assay [20] it was 18.5 µM (inactive); in assay [16] it was 5.08 µM (inactive); in [17] it was 23.1 µM (inactive); in assay [18], 2.99 µM (inactive).

For the compound `O=C1c2ccccc2-c2c1c(-c1ccc([N+](=O)[O-])cc1)nc1ccc3ccccc3c21`, the GI50 in assay [1] was > 100 µM (inactive); in assay [2], > 100 µM (inactive); in [3], > 100 µM (inactive); in assay [5] it was > 100 µM; in assay [6] it was > 100 µM (inactive); in assay [7] it was > 100 µM (inactive). Besides, the GI50 in [8], in assay [9], in assay [10], in assay [11], in [12] and in assay [14] was > 100 µM (inactive) throughout. The GI50 in assay [20], in assay [16] and in assay [17] was > 100 µM (inactive) throughout.

For `COc1ccc(/C(=N/OCCCC(=O)O)c2cccs2)cc1`, the GI50 is > 100 µM (inactive) in [1]; > 100 µM (inactive) in assay [2]; > 100 µM (inactive) in assay [3]; > 100 µM (inactive) in [4]; > 100 µM in assay [5]; > 100 µM (inactive) in assay [6]. Further, the GI50 in assay [7], in assay [8], in assay [9], in [10], in assay [11] and in assay [12] was > 100 µM (inactive) throughout. Moreover, the GI50 in assay [13], in assay [14], in [20], in assay [16], in assay [17] and in assay [18] was > 100 µM (inactive) each time.

For `CC(NC(=O)c1c(O)[nH]c(=S)[nH]c1=O)c1ccc([N+](=O)[O-])cc1` (stereo not drawn), the GI50 in assay [1] was 36.1 µM (inactive); in [2], > 100 µM (inactive); in [3], 94.6 µM (inactive); in [4], > 100 µM (inactive); in assay [5], > 100 µM; in assay [6] it was > 100 µM (inactive). Besides, the GI50 in assay [7] was 37.2 µM (inactive); in assay [8], > 100 µM (inactive); in assay [9], 43.7 µM (inactive); in assay [11], > 100 µM (inactive); in [12], > 100 µM (inactive); in assay [13] it was > 100 µM (inactive). In addition, the values for the GI50 in assay [20], in assay [16] and in assay [18] were > 100 µM (inactive), 61 µM (inactive) and > 100 µM (inactive), respectively.

`CSc1c(C#N)c(N)n2c1C(=O)N(c1ccccc1)C2=S`: the GI50 in assay [1] is > 100 µM (inactive); in assay [2] it was 38.6 µM (inactive); in assay [3] it was 32.6 µM (inactive); in assay [4], > 100 µM (inactive); in assay [5] it was > 100 µM; in [6], 85.1 µM (inactive). Moreover, the GI50 is 52.6 µM (inactive) in [7]; > 100 µM (inactive) in assay [9]; 90.4 µM (inactive) in assay [10]; 74 µM (inactive) in assay [11]; > 100 µM (inactive) in assay [12]; > 100 µM (inactive) in assay [13]. For the same compound, the GI50 in assay [14] was 92.9 µM (inactive); in [20], > 100 µM (inactive); in assay [15] it was 21.2 µM (inactive); in [16] it was 38.3 µM (inactive); in assay [17], 80.5 µM (inactive); in assay [18] it was > 100 µM (inactive).

On to `CCOc1cc(NC(C)=O)ccc1C(=O)NN1C(=O)/C(=C/c2ccc(Cl)cc2)N=C1c1ccccc1`, for which the GI50 in [1] was 33 µM (inactive); in assay [2], 38.5 µM (inactive); in assay [3], 74.1 µM (inactive); in assay [4], 49.1 µM (inactive); in assay [5], 35.6 µM; in assay [6], > 100 µM (inactive). The GI50 was 13.2 µM (inactive) in assay [7]; 25.9 µM (inactive) in assay [8]; 35.2 µM (inactive) in assay [9]; 70.6 µM (inactive) in assay [11]; 34.3 µM (inactive) in assay [12]; 34.1 µM (inactive) in assay [13]. The GI50 in [14] was 34 µM (inactive); in assay [20] it was 35.6 µM (inactive); in assay [16], 46.1 µM (inactive); in assay [17], 42 µM (inactive); in [18], 33 µM (inactive); in [19], 46 µM (inactive).
